Results: the NIST ThermoML archive (doi:10.1021/je060271a)

Settings: 323.15 K, Liquid, Vibrating tube method

CCCCC(=O)OCC(COC(=O)CCCC)(COC(=O)CCCC)COC(=O)CCCC [pentaerythritol tetrapentanoate]
Settings	mass density [kg/m3]
2620 kPa	996.4
2660.6 kPa	996.5
2696.9 kPa	996.5
2718.7 kPa	996.6
2740.2 kPa	996.6
2766.8 kPa	996.6
2789.3 kPa	996.7
2812.2 kPa	996.6
2835.1 kPa	996.5
2863.3 kPa	996.6
2886.9 kPa	996.7
2911 kPa	996.7
2989.9 kPa	996.7
3015.4 kPa	996.6
3041 kPa	996.8
3072.2 kPa	996.8
3098.9 kPa	996.7
3127.4 kPa	996.8
3156.2 kPa	996.9
3188.1 kPa	996.9
3211.7 kPa	996.9
3262.5 kPa	996.8
3273.9 kPa	997
3286 kPa	997.1
3299.4 kPa	997
3310.7 kPa	996.9
3322.8 kPa	997
3337.8 kPa	996.9
3347.6 kPa	997
3361.4 kPa	997.1
3373 kPa	997
3399.5 kPa	997
3411.5 kPa	997.1
3423.8 kPa	997.1
3438.5 kPa	997.1
3453.3 kPa	997.1
3522.2 kPa	997
3637.3 kPa	997.2
3714.9 kPa	997.3
3733.1 kPa	997.2
3751.4 kPa	997.3
3769.8 kPa	997.4
3791.1 kPa	997.3
3809.5 kPa	997.4
3828.4 kPa	997.3
3846.7 kPa	997.3
3869.1 kPa	997.3
3887.6 kPa	997.3
3909.9 kPa	997.3
3929 kPa	997.5
3947.9 kPa	997.4
3967.4 kPa	997.4
3987.2 kPa	997.5
4010 kPa	997.4
4029.3 kPa	997.5
4049 kPa	997.5
4072.7 kPa	997.4
4092.3 kPa	997.5
4112.7 kPa	997.6
4137.3 kPa	997.5
4158.1 kPa	997.5
4179.1 kPa	997.6
4200.2 kPa	997.6
4225 kPa	997.6
4246.8 kPa	997.7
4268.4 kPa	997.5
4290.2 kPa	997.6
4316 kPa	997.7
4337.7 kPa	997.6
4359.8 kPa	997.7
4382.3 kPa	997.8
4409 kPa	997.7
4431.7 kPa	997.7
4454.9 kPa	997.7
4478.1 kPa	997.8
4506.5 kPa	997.9
4529.8 kPa	997.9
4554.2 kPa	997.9
4579 kPa	997.8
4607.9 kPa	998
4632.1 kPa	997.9
4657.2 kPa	998
4688.4 kPa	997.9
4714.7 kPa	997.9
4741.5 kPa	998
4773.2 kPa	998
4800.4 kPa	998
4827.4 kPa	998
4855.4 kPa	997.9
4889.5 kPa	998.1
4918.2 kPa	998.1
4946.4 kPa	998.1
4975.1 kPa	998.2
4978.1 kPa	998.3
4995.6 kPa	998.2
4997.5 kPa	998.3
5038.8 kPa	998.1
5039.2 kPa	998.3
5039.4 kPa	998.2
5040 kPa	998.2
5040.7 kPa	998.2
5041.6 kPa	998.2
5042.1 kPa	998.1
5042.6 kPa	998.2
5044 kPa	998.2
5052.3 kPa	998.3
5059.4 kPa	998.3
5066.5 kPa	998.4
5073.8 kPa	998.2
5082.4 kPa	998.2
5089.7 kPa	998.2
5097 kPa	998.3
5105.8 kPa	998.3
5113.1 kPa	998.3
5120.5 kPa	998.3
5128 kPa	998.3
5134.7 kPa	998.4
5142.3 kPa	998.3
5150.8 kPa	998.3
5158.4 kPa	998.2
5166.2 kPa	998.2
5174.9 kPa	998.3
5182.5 kPa	998.3
5189.9 kPa	998.3
5197.3 kPa	998.3
5206 kPa	998.3
5213.8 kPa	998.3
5221.7 kPa	998.3
5229.5 kPa	998.3
5238.5 kPa	998.5
5246.1 kPa	998.3
5254.1 kPa	998.4
5261.5 kPa	998.4
5270.5 kPa	998.3
5278.7 kPa	998.4
5287.8 kPa	998.4
5295.3 kPa	998.4
5303 kPa	998.5
5312.6 kPa	998.3
5320.7 kPa	998.4
5329.2 kPa	998.5
5336.8 kPa	998.3
5345.1 kPa	998.5
5352.9 kPa	998.5
5362.7 kPa	998.5
5370.9 kPa	998.4
5379 kPa	998.5
5388.7 kPa	998.4
5397.1 kPa	998.5
5405.1 kPa	998.5
5413.1 kPa	998.3
5422.9 kPa	998.5
5431 kPa	998.5
5439.2 kPa	998.5
5449.6 kPa	998.4
5457.5 kPa	998.4
5465.6 kPa	998.5
5473.9 kPa	998.4
5483.8 kPa	998.6
5491.6 kPa	998.5
5499.5 kPa	998.6
